According to patent US20060199856A1, “Novel compounds as anti-inflammatory, immunomodulatory and anti-proliferatory agents” (4 SC AG, priority 2001, published 2006):
Like-named read-outs stand apart in the source and are kept apart here.

Assays:
Assay type in all cases: biochemical
[1] = target: T1, recombinant human DHODH (Homo sapiens, UniProt Q02127); assay: Inhibition assay of DHODH activity (human enzyme)
T1 construct: provided by Prof; M. Löffler, Marburg, Germany (gift, not purchased)
Protocol: (§1) The standard assay mixture contained 50 μM decyclo ubichinone, 100 μM dihydroorotate, 60 μM 2,6-dichloroindophenol, as well as 20 mU DHODH. The volume activity of the recombinant enzyme used was 30 U/ml. Measurements were conducted in 50 mM TrisHCl (150 mM KCl, 0,1% Triton X-100, pH. 8,0) at 30° C. in a final volume of 1 ml. The components were mixed, and the reaction was started by adding dihydroorotate. The course of reaction was followed by spectrophotometrically measuring the decrease in absorption at 600 nm for 2 min.
(§2) Inhibitory studies were conducted in a standard assay with additional variable amounts of inhibitor.
(§3) These investigations were carried out with recombinant human as well as with recombinant murine DHODH provided by Prof. M. Löffler, Marburg, Germany [M. Löffler, Chem. Biol. Interact.

[2] = target: T2, recombinant murine DHODH (Mus musculus, UniProt O35435); assay: Inhibition assay of DHODH activity (murine enzyme); details: numeric values or words
T2 construct: provided by Prof; M. Löffler, Marburg, Germany (gift, not purchased)
Protocol: as §1, §2, §3

[3] = target: DHODH (Rattus norvegicus, UniProt Q63707); assay: Inhibition assay of DHODH activity (rat enzyme, head printed 'rate')
Protocol: as §1, §2

[4] = recombinant human DHODH, numeric values, read-out: human IC50-Value
[5] = recombinant human DHODH, class symbols (in nM), read-out: human IC50-Value
[6] = class symbols (in nM), read-out: rate IC50-Value

Chain of DHODH (Q63707 whole entry): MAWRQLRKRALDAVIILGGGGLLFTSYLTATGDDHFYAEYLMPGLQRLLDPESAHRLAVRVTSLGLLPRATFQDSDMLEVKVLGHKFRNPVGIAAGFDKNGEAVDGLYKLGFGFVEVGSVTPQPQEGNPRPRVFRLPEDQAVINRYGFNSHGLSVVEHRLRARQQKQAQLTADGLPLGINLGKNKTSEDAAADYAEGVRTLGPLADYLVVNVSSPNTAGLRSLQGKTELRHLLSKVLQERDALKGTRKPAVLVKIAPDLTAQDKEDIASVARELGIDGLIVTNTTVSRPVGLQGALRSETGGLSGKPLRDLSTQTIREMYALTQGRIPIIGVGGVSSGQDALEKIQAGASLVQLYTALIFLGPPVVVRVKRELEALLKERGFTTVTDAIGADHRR
T1 sequence (Q02127 whole entry): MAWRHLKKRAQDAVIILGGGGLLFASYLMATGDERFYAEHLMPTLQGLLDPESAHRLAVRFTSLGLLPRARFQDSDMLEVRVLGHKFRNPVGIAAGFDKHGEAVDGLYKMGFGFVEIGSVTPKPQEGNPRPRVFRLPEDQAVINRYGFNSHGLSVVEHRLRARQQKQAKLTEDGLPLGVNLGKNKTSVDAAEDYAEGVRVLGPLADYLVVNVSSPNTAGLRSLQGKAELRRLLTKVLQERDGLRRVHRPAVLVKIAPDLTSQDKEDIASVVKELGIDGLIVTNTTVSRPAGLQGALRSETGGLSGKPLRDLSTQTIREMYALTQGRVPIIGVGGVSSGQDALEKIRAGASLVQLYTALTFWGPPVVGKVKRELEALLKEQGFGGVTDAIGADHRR
T2 sequence (O35435 whole entry): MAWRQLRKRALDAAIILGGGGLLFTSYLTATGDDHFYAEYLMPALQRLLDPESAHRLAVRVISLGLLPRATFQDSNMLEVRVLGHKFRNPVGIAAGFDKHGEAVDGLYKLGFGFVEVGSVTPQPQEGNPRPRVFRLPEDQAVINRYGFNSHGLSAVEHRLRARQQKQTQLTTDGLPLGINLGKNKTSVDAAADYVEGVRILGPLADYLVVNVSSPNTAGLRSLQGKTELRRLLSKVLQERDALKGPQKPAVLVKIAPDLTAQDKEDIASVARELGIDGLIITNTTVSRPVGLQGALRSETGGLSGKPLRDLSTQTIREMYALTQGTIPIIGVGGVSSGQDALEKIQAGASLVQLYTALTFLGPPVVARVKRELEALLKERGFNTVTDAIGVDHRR

| SMILES | IC50 [1, 5] [nM] | further results |
| --- | --- | --- |
| O=C(O)C1=C(C(=O)Nc2ccc(OCc3ccccc3)cc2)CCC1 [Compound 01, 2-(4-Benzyloxy-phenylcarbamoyl)-cyclopent-l-enecarboxylic acid] |  | IC50 [1, 4]: 350 nM; IC50 [2]: 8200 nM |
| O=C(O)C1=C(C(=O)Nc2cc(C(F)(F)F)cc(C(F)(F)F)c2)CCC1 [Compound 03] |  | IC50 [1, 4]: 1000 nM |
| COc1ccc(Nc2ccc(NC(=O)C3=C(C(=O)O)CCC3)cc2)cc1 [Compound 04] |  | IC50 [1, 4]: 1000 nM; murine IC50-Value [2]: weakly active |
| O=C(O)C1=C(C(=O)Nc2ccc3c(c2)S(=O)(=O)c2cc(NC(=O)C4=C(C(=O)O)CCC4)ccc2C3)CCC1 [Compound 05] |  | IC50 [1, 4]: 1100 nM; murine IC50-Value [2]: weakley active |
| O=C(O)C1=C(C(=O)Nc2c(F)c(F)cc(F)c2F)CCC1 [Compound 06] |  | IC50 [1, 4]: 1300 nM |
| O=C(O)C1=C(C(=O)Nc2c(F)c(F)c(C(F)(F)F)c(F)c2F)CCC1 [Compound 07] |  | IC50 [1, 4]: 1600 nM |
| O=C(O)C1=C(C(=O)Nc2ccc(C(F)(F)F)cc2)CCC1 [Compound 08] |  | IC50 [1, 4]: 1600 nM; IC50 [2]: 930 nM |
| O=C(O)C1=C(C(=O)Nc2cccc(C(F)(F)F)c2)CCC1 [Compound 09] |  | IC50 [1, 4]: 6800 nM; IC50 [2]: 55000 nM |
| O=C(O)C1=C(C(=O)Nc2ccc(F)c(F)c2F)CCC1 [Compound 10] |  | IC50 [1, 4]: 6800 nM |
| Nc1ccc(Oc2ccc(NC(=O)C3=C(C(=O)O)CCCC3)cc2)cc1 [Compound 11] |  | IC50 [1, 4]: 7000 nM |
| O=C(O)C1=C(C(=O)Nc2ccc(-c3ccccc3F)cc2)CCC1 [Compound 13] | < 800 | IC50 [3, 6]: > 1500 nM |
| O=C(O)C1=C(C(=O)Nc2ccc(-c3ccccc3Cl)cc2)CCC1 [Compound 14] | < 800 | IC50 [3, 6]: > 1500 nM |
| COc1ccccc1-c1ccc(NC(=O)C2=C(C(=O)O)CCC2)cc1 [Compound 15] | < 800 |  |
| O=C(O)C1=C(C(=O)Nc2ccc(OCc3c(F)cccc3F)cc2)CCC1 [Compound 16] | < 800 |  |
| CCOc1ccccc1-c1ccc(NC(=O)C2=C(C(=O)O)CCC2)c(F)c1 [Compound 17] | < 800 |  |
| N#Cc1cccc(-c2ccc(NC(=O)C3=C(C(=O)O)CCC3)cc2Cl)c1 [Compound 18] | < 800 |  |
| COc1ccc(-c2ccc(NC(=O)C3=C(C(=O)O)CCC3)cc2Cl)cc1 [Compound 19] | < 800 | IC50 [3, 6]: < 800 nM |

| SMILES | IC50 [1, 5] [nM] | further results |
| --- | --- | --- |
| CS(=O)(=O)c1ccc(-c2ccc(NC(=O)C3=C(C(=O)O)CCC3)cc2Cl)cc1 [Compound 20] | 800 to 1500 |  |
| N#Cc1ccc(-c2ccc(NC(=O)C3=C(C(=O)O)CCC3)cc2Cl)cc1 [Compound 21] | 800 to 1500 |  |
| COc1ccc(-c2ccc(NC(=O)C3=C(C(=O)O)CCC3)cc2Cl)cn1 [Compound 22] | < 800 |  |
| COc1ccc(-c2ccc(NC(=O)C3=C(C(=O)O)CCC3)cc2C)cc1 [Compound 23] | < 800 |  |
| O=C(O)C1=C(C(=O)Nc2cc(Br)c(OCc3cc(F)ccc3F)c(Br)c2)CCC1 [Compound 24] | < 800 | IC50 [3, 6]: > 1500 nM |
| COc1cccc(-c2ccc(NC(=O)C3=C(C(=O)O)CCC3)c(F)c2)c1 [Compound 26] |  | IC50 [3]: > 1500 nM |
| O=C(O)C1=C(C(=O)Nc2ccc(-c3cccc(F)c3)cc2F)CCC1 [Compound 27] | < 800 |  |
| O=C(O)C1=C(C(=O)Nc2ccc(-c3cccnc3)c(Cl)c2)CCC1 [Compound 28] | 800 to 1500 |  |
| O=C(O)C1=C(C(=O)Nc2cc(Br)c(OCc3ccccc3)c(Br)c2)CSC1 [Compound 29] |  | IC50 [1]: < 800 nM; IC50 [3]: 800 to 1500 nM |
| Cc1cc(-c2cc(F)c(NC(=O)C3=C(C(=O)O)CCC3)c(F)c2)ccc1F [Compound 30] | < 800 |  |
| COc1ccccc1-c1ccc(NC(=O)C2=C(C(=O)O)CCC2)c([N+](=O)[O-])c1 [Compound 32] | < 800 |  |
| COc1cc(-c2ccccc2)ccc1NC(=O)C1=C(C(=O)O)CCC1 [Compound 33] | < 800 |  |
| COc1cc(-c2ccccc2Cl)ccc1NC(=O)C1=C(C(=O)O)CCC1 [Compound 34] | < 800 |  |
| COc1cc(-c2cccc(OC(F)(F)F)c2)ccc1NC(=O)C1=C(C(=O)O)CCC1 [Compound 35] | < 800 |  |
| COc1cc(-c2ccccc2F)ccc1NC(=O)C1=C(C(=O)O)CCC1 [Compound 36] | < 800 |  |
| COc1ccc(-c2ccc(NC(=O)C3=C(C(=O)O)CCC3)c(OC)c2)c(OC)c1 [Compound 37] | < 800 |  |
| CCOc1cccc(-c2ccc(NC(=O)C3=C(C(=O)O)CCC3)c(OC)c2)c1 [Compound 38] | < 800 |  |
